According to patent US20160256449A1, “H3 RECEPTOR ANTAGONIST FOR USE IN THE TREATMENT OF ALZHEIMER'S DISEASE” (SANOFI, priority 2013, published 2016):
Structures can show the parent of a compound that is named as a salt.

Experiments:
CD1 male mice = experiment: object recognition test in normal mice; type: in vivo; conditions: 3 mg/kg oral, individually
From the text: FIG. 1 illustrates the results of the effect of a co-treatment with 2-(cyclohexyl methyl)-N-{2-[(2S)-1-methyl pyrrolidin-2-yl]ethyl}-1,2,3,4-tetrahydroisoquinoline-7-sulfonamide and donepezil on recognition memory in normal mice at various delays using the object recognition task.
The results of this study are depicted in FIG. 1.

scopolamine treated mice = experiment: object recognition task in scopolamine-treated mice; type: in vivo; conditions: 1 mg/kg alone
From the text: FIG. 2 illustrates the results of the effect of a co-treatment with 2-(cyclohexylmethyl)-N-{2-[(2S)-1-methylpyrrolidin-2-yl]ethyl}-1,2,3,4-tetrahydroisoquinoline-7-sulfonamide and donepezil on recognition memory deficit in scopolamine-treated mice using the object recognition task.
The results of this study are depicted in FIG. 2.

various rodent models = conditions: cited from earlier work

For COc1cc2c(cc1OC)C(=O)C(CC1CCN(Cc3ccccc3)CC1)C2 (racemic) [donepezil hydrochloride, (±)-2,3-dihydro-5,6-dimethoxy-2-[[1-(phenylmethyl)-4-piperidinyl]methyl]-1H-inden-1-one, reference compound], which “memory in object recognition test” value (CD1 male mice; 24 hours after administration) is on record?
The value was “enhanced the memory”.

And the “procognitive effect in object recognition test” value (CD1 male mice; after 48 hours)?
The value was “lack of procognitive effect”.

What about the “activity of the amount given alone, episodic memory deficits” value (scopolamine treated mice) of the same molecule?
The value was “inactive”.

With CN1CCC[C@H]1CCNS(=O)(=O)c1ccc2c(c1)CN(CC1CCCCC1)CC2 [2-(Cyclohexylmethyl)-N-{2-[(2S)-1-methylpyrrolidin-2-yl]ethyl}-1,2,3,4-tetrahydroisoquinoline-7-sulfonamide] as the molecule, how does the “cognitive performances on short-term and long-term memory and attention deficits” value (various rodent models) read?
The value was “improves cognitive performances”.
